According to patent publication US11590092B2, “Skin probiotic” (The Regents of the University of California, priority 2014, dated 2023):
In brackets after ≈: the same amount, converted by molar mass. Entries after “also recorded” stand apart in the source; their conditions may differ.

Tests used:
USA300 [1] = experiment: MBC assay against USA300; assay type: cell-based, Staphylococcus aureus
Method: To determine the MBC of propionic acid, USA300 (10^6 CFU/ml) were incubated with propionic acid at various concentrations (1.25-100 mM in PBS) as indicated in each individual experiment in media on a 96-well microplate (100 μl per well) overnight. The control received only PBS. After incubation, the bacteria were diluted 1:10-1:10^6 with PBS. […] To determine the pH effect on the bacterial growth, USA300 in TSB was incubated with 2.5 mM propionic acid on a 96-well microplate (100 μl per well) overnight before spotting on an agar plate.
To determine the minimal bactericidal concentration (MBC) and minimal fungicidal concentration (MFC) of propionic acid, microorganisms (10^6 colony forming units (cfu)/ml) were incubated overnight in media with propionic acid (1.25-2,000 mM) in a 96-well microplate (100 μl per well). The control only received PBS. After incubation, the microorganisms were diluted 1:10-1:10^6 into PBS. […]

P. acnes [2] = experiment: MBC assays of SCFAs against P. acnes; assay type: cell-based, Propionibacterium acnes; conditions: for MBC: Cutibacterium acnes, P. acnes 10^8 CFU/ml, overnight, 99.9% killing level
Method: To determine the MBC values of SCFAs, P. acnes (10^8 CFU/ml) was incubated with SCFAs at various concentrations (2.5-100 mM in PBS) as indicated in each individual experiment in media on a 96-well microplate (100 μl per well) overnight. The control received only PBS. After incubation, the bacteria were diluted 1:10-1:10^6 with PBS. MBC was defined as a 99.9% killing level and determined by spotting the dilution (5 μl) on an agar plate supplemented with media for CFU counting. To determine the effect of pH on its growth, P. acnes in PBS was incubated with 5 mM succinic acid on a 96-well microplate (100 μl per well) overnight before spotting on an agar plate. As controls, P. acnes was incubated with PBS (pH 7.4) alone, PBS (pH 5.5; a pH value corresponding to the MBC of succinic acid in PBS), or buffered succinic acid (5 mM succinic acid, pH 7.4 buffered with ammonium hydroxide).
The minimal bactericidal concentration (MBC) assays were performed to determine if SCFAs exert the antimicrobial activities against P. acnes. Bacteria were incubated with acetic acid, butyric acid, lactic acid, and succinic acid various concentrations in media for 24 h. After incubation, the bacteria were diluted with PBS and spotted on an agar plate to count CFUs. […] To assess the acidity (pH 5.5) of 5 mM succinic acid in affecting growth of P. acnes, bacteria were incubated with PBS (pH 5.5) or ammonium hydroxide-buffered succinic acid (pH 7.4).

USA300 [3] = experiment: Growth of USA300 with glycerol; assay type: cell-based, Staphylococcus aureus; conditions: glycerol itself
USA300 [4] = experiment: Interference of P. acnes fermentation with the colonization of USA300 in skin wounds in vivo; set-up: species or system ICR mice; conditions: glycerol 0.2 mg alone, compared to PBS
Method: A 5 mm wound made on the dorsal skin of ICR mice were described above. P. acnes bacteria (10^7 CFU in 5 μl PBS), P. acnes bacteria and glycerol (0.2 mg), PBS (5 μl) alone or glycerol alone were applied onto the skin wounds for 3 days. USA300 (10^7 CFU in 5 μl PBS) was administered onto the same wounds. The wounds were excised, weighted and homogenized 3 days after USA300 administration. Bacterial CFUs in the wounds were enumerated by plating serial dilutions (1:10^1-1:10^6) of the homogenate on a TSB agar plate. The plate was incubated for 24 h at 37° C. to count colonies of USA300.

P. acnes [5] = experiment: Growth curve of P. acnes in absence or presence of glycerol (OD600); assay type: cell-based, Propionibacterium acnes; conditions: rich medium with glycerol vs without, anaerobic, 30° C.
Method: P. acnes was incubated in rich medium in the absence (□) and presence (▪) of glycerol on a 96-well microplate under anaerobic conditions at 30° C. The OD600 was read at the indicated time points. Data are the mean±SD of three separate experiments.

P. acnes [6] = test system: P. acnes
P. acnes [7] = conditions: 5 mM, 5 min after treatment, vs PBS
Method: To eliminate unbound probe, bacteria were incubated with glucose (10 mM) for an additional 30 min, washed twice in 50 mM PBS with 10 mM MgCl2, pH 7.0, and then re-suspended in 1 mM PBS. […] Fluorescence intensities were measured immediately and every min for 5 min using an excitation wavelength of 490 nm and emission wavelength of 520 nm. A drop in relative fluorescence indicates the decrease in intracellular pH. Fluorescence of the bacteria-free filtrate (background fluorescence) was measured after the 5-min assay. The treated suspensions were centrifuged at 5,000 g for 5 min, the fluorescence of the bacteria-free supernatant was measured. Calibration curves were obtained by incubation of un-treated, cFSE-loaded bacteria in buffers of various pHs. The buffer containing glycine (50 mM), citric acid (50 mM), Na2HPO4.2H2O (50 mM), and KCl (50 mM) was adjusted to various pH values ranging from 4 to 10. Equilibration of the intracellular and extracellular pH was conducted by addition of 1 μM valinomycin and nigericin (Sigma, St. Louis, Mo.).
P. acnes was loaded with an internally conjugated fluorescent pH probe, carboxyfluorescein succinimidyl ester (cFSE).

[8] = topical application, 100 mM once per day, vs PBS

## CCC(=O)OCCOCCOC(=O)CC [PA-DEG-PA, propionic acid 2-(2-propionyloxyethoxy)ethyl ester]
USA300 [1]; 4% dimethyl sufoxide
  efficacy to suppress the growth of USA300 in vitro compared with propionic acid: equivalent in efficacy
USA300 [1]; dissolved in 4% dimethyl sufoxide, overnight
  concentration for complete growth inhibition of USA300: 100 mM
USA300 [1]; dissolved in 4% dimethyl sufoxide, overnight, 0-100 mM
  MBC (>1 log10 inhibition) against USA300: ≥ 25 mM

## CC(=O)O [acetic acid]
P. acnes [2]
  MBC: 7.5 mM (≈ 450 µg/mL)

## CCCC(=O)O [butyric acid]
P. acnes [2]
  MBC: 10 mM (≈ 881 µg/mL)

## OCC(O)CO [glycerol]
USA300 [3]
  growth of USA300: did not influence
USA300 [4]
  USA300 colonization: did not significantly alter
  size of USA300-infected lesions: did not significantly alter
P. acnes [5]
  growth of P. acnes: did not influence; also recorded: did not change significantly

## CC(O)C(=O)O (stereo not drawn) [lactic acid]
P. acnes [2]
  MBC: 10 mM (≈ 901 µg/mL)

## O=C(O)CCC(=O)O [succinic acid]
P. acnes [2]; 5 mM succinic acid buffered with ammonium hydroxide, pH 7.4
  antimicrobial activity against P. acnes after buffering: persisted
P. acnes [2]
  MBC: 5 mM (≈ 590 µg/mL)
P. acnes [2]; MBC assay
  concentration that completely killed P. acnes: ≥ 210 mM
  concentration that effectively suppressed the growth of P. acnes: ≥ 25 mM
P. acnes [6]; application of succinic acid (FIG. 5)
  P. acnes-induced inflammation: significantly neutralizes
P. acnes [6]; intralesional injection, 5 mM
  P. acnes numbers in ears: 2.9×10^4±1.3×10^4 CFU
P. acnes [6]; intralesional injection, 5 mM, two days after injection, ELISA
  MIP-2 production less than in PBS-injected ear: approximately 50%
P. acnes [6]; intralesional injection, 5 mM, vs PBS
  P. acnes-induced redness: reduced
P. acnes [6]; [8]
  MIP-2 production: considerably lowered
  P. acnes colonization: considerably lowered
P. acnes [7]
  intracellular pH of P. acnes: significantly lowered
